Measured values from publication PMC10447463, “Data-mining unveils structure–property–activity correlation of viral infectivity enhancing self-assembling peptides” (Nature Communications, 2023).
Read-outs that look alike come from different tables or passages of the source.

What was measured:
[1] = Conversion rate (CR) assay with fluorescamine; assay type: physicochemical; set-up: key to CR: % = 100−100×filtrate/original fluorescence intensity
Procedure, shortened: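 Measurements on freeze-dried PNF powders used a diamond ATR element, 64 scans each, with β-sheet fraction derived as previously reported. CR reflects loss of fluorescamine-reactive monomer after 3 kDa ultrafiltration, averaged over triplicates.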

[2] = tested on: TZM-bl cells; assay type: cell-based; conditions: CellTiter-Glo, mean of n = 3 replicates; for viability 0.26 µM: peptide 0.26 µM; for viability 1.3 µM: peptide 1.3 µM; for viability 6.5 µM: peptide 6.5 µM
Procedure, shortened: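 CellTiter-Glo luminescence, normalized to 100% metabolic activity, gave cytotoxicity readout for TZM-bl cells exposed to peptide serial dilutions for 3 days; 10,000 cells seeded, triplicate measurements.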

Row | Substance | Conversion Rate / % ([1]; fluorescamine assay) [%] | viability 0.26 µM [2] | viability 1.3 µM [2] | viability 6.5 µM [2] | Conversion Rate / % [1] [%] | CR / % ([1]; Fig. S7 panel B, conversion rate, fluorescamine assay) [%] | CR ([1]; conversion rate, fluorescamine assay)
1 | CEFEFQFNMWQ [TM140] | 98.63 | 125.8 | 116.7 | 98.23 | – | – | –
2 | CEIEIQINMWQ [TM143] | 59.9 | 119.4 | 116.4 | 95.82 | 59.9 | – | –
3 | CHLHLQL [CN9] | 96.58 | 107.2 | 104.6 | 96.74 | – | – | –
4 | CKAKAQANM [BL9] | 57.73 | – | – | – | 57.73 | – | –
5 | CKAKAQANMWQ [BL8] | 92.9 | – | – | – | 92.9 | – | –
6 | CKFKFQF [BL4] | 96.11 | 97.07 | 99.36 | 84.09 | 96.11 | – | –
7 | CKFKFQFNM [BL3] | 99.03 | – | – | – | 99.03 | – | –
8 | CKFKFQFNMWQ [BL2] | 99.03 | 106 | 95.99 | 75.41 | 99.03 | – | –
9 | CKFKFQFW [TM72] | – | 91.88 | 85.39 | 82.4 | – | – | –
10 | CKFKQFF [CK15] | 90.05 | – | – | – | 90.05 | – | –
11 | CKFKQFFNM [CK14] | – | 126.1 | 113.2 | 106.7 | – | – | –
12 | CKFKQFFNMWQ [CK13] | 98.72 | 122.3 | 108 | 88.49 | 98.72 | – | –
13 | CKIKIQI [MG3b] | – | 107.8 | 105.2 | 91.32 | – | – | –
14 | CKIKIQINM [MG2] | 79 | – | – | – | 79 | – | –
15 | CKIKIQINMWQ | – | – | – | – | – | 89.1 | 89.15
16 | CKIKIQINMWQ [MG1] | 91.29 | – | – | – | 91.29 | – | –
17 | CKIKQIINM [BL1] | – | 107.4 | 104.1 | 87.1 | – | – | –
18 | CKIKQIINMWQ [MG5a / CK17] | – | 108.4 | 105.1 | 87.21 | – | – | –
19 | CKWKWQW [KB4] | – | 110.3 | 107 | 96.91 | – | – | –
20 | CQFQFQF [QBL4] | – | 110.4 | 111.2 | 99.59 | – | – | –
21 | CRFRFQF [CN10] | 98.13 | 93.96 | 90.72 | 89.78 | – | – | –
22 | CRFRVPF [CN8] | 97.05 | – | – | – | – | – | –
23 | CSISIQI [TM141] | 76.63 | 98.15 | 96.88 | 81.12 | – | – | –
24 | HHHHKIKIKIKIYYYY [TM6] | – | 112.4 | 103.8 | 86.78 | – | – | –
25 | KAKAQA [JJA2 / TM153] | 0.3138 | 119.1 | 118.6 | 109.1 | 0.3138 | – | –
26 | KAKAQANMWQ [JG3] | 47.47 | 106.8 | 106.3 | 103.1 | 47.47 | – | –

Row | Substance | Conversion Rate / % ([1]; fluorescamine assay) [%] | viability 0.26 µM [2] | viability 1.3 µM [2] | viability 6.5 µM [2] | Conversion Rate / % [1] [%] | CR / % ([1]; Fig. S7 panel B, conversion rate, fluorescamine assay) [%] | CR ([1]; conversion rate, fluorescamine assay)
27 | KFKFQF [JJA6] | 51.79 | 101.2 | 100.3 | 102.1 | 51.79 | – | –
28 | KFKFQFNM [BL6a] | 98.53 | – | – | – | 98.53 | – | –
29 | KFKFQFNMWQ [JG4] | 98.32 | 119.1 | 111.9 | 101.1 | 98.32 | – | –
30 | KFKFQFW [TM71] | – | 107.5 | 104.2 | 102.2 | – | – | –
31 | KIKIKIKIYYYY [JR7] | – | 98.76 | 92.93 | 78.89 | – | – | –
32 | KIKIKIQINMWQ [VH9] | – | 103.6 | 97.29 | 82.19 | – | – | –
33 | KIKIQI [JJA4] | 32.82 | – | – | – | 32.82 | – | –
34 | KIKIQIC [TM112 / CN11] | 51.55 | 99.13 | 101.3 | 97.07 | – | – | –
35 | KIKIQINM [JGB2] | – | 119.1 | 112 | 103.3 | – | – | –
36 | KIKIQINMWQ [JG1] | 95.68 | – | – | – | 95.68 | – | –
37 | KIKQII [msis21] | 19.94 | – | – | – | 19.94 | – | –
38 | KIKQIINM [JGA2] | – | 123.3 | 117.7 | 101.1 | – | – | –
39 | KIKQIINMWQ [JG2] | 94.17 | 91.29 | 92.88 | 83.88 | 94.17 | – | –
40 | MKFKFQF [DF5 / CK16] | 98.72 | 101.4 | 111.3 | 99.71 | – | – | –
41 | QCKAKAQANMWQ [CK22] | 89.28 | 96.23 | 96.71 | 85.72 | 89.28 | – | –
42 | QCKFKFQF [CK9] | – | 104.7 | 139.5 | 96.02 | – | – | –
43 | QCKFKFQFNM [CK8] | 98.94 | – | – | – | 98.94 | – | –
44 | QCKFKFQFNMWQ [CK7] | 98.91 | 107 | 97.9 | 88.11 | 98.91 | – | –
45 | QCKFKQFFNM [CK11] | 98.67 | – | – | – | 98.67 | – | –
46 | QCKFKQFFNMWQ [CK10] | 98.72 | 119.6 | 108.9 | 99.32 | 98.72 | – | –
47 | QCKIKIQI [CK3] | – | 95.48 | 97.81 | 91.95 | – | – | –
48 | QCKIKIQINM [CK2] | 89.7 | 114.5 | 100.8 | 83.71 | 89.7 | – | –
49 | QCKIKIQINMWQ [EF-C opt] | 93.68 | 100.5 | 106.5 | 85.71 | 93.68 | – | –
50 | RGDCKIKIQINM [TM45] | – | 111.8 | 107.9 | 102.5 | – | – | –
51 | RGDKIKIQIC [MG7/CN1] | – | 116.2 | 110.7 | 92.54 | – | – | –
52 | RGDSKIKIQIC [TM113 / RC11] | – | 92.36 | 89.65 | 83.18 | – | – | –
